Results published in patent EP4722207A1, “OXOISOINDOLINYL-SUBSTITUTED TETRAHYDROPYRIMIDINEDIONE DERIVATIVE AND USE THEREOF” (Gluetacs Therapeutics (Shanghai) Co., Ltd., priority 2023, dated 2024).

How the values were obtained:
Assay type in all cases: cell-based
GSPT1 = biological target: T1, GSPT1 (Homo sapiens, UniProt P15170+Q96SW2); assay: Western-blot assay, substrate protein degradation in hPBMCs: GSPT1; conditions: for GSPT1 substrate protein remaining %: compounds at 50 nM and 500 nM, 24 hours; for substrate protein remaining % GSPT1: 24 hours of compound treatment, 50 nM and 500 nM
T1 construct: effects of the compounds of the present disclosure on the expression of target proteins in cells; endogenous in cells; host or cells: human PBMCs (hPBMCs)
T1 sequence (P15170 whole entry): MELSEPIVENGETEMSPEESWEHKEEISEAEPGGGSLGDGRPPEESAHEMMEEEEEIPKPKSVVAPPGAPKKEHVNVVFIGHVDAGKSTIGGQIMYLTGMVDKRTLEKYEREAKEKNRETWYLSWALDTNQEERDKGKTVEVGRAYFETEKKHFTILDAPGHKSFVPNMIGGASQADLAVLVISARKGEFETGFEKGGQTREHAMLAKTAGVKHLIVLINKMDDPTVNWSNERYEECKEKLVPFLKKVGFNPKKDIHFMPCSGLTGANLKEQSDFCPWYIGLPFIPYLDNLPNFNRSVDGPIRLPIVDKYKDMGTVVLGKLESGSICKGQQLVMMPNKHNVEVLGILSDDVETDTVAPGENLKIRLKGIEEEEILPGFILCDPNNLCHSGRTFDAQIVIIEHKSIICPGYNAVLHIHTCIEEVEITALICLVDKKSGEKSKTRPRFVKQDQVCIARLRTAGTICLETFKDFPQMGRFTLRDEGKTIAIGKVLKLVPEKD
T1 sequence (Q96SW2 whole entry): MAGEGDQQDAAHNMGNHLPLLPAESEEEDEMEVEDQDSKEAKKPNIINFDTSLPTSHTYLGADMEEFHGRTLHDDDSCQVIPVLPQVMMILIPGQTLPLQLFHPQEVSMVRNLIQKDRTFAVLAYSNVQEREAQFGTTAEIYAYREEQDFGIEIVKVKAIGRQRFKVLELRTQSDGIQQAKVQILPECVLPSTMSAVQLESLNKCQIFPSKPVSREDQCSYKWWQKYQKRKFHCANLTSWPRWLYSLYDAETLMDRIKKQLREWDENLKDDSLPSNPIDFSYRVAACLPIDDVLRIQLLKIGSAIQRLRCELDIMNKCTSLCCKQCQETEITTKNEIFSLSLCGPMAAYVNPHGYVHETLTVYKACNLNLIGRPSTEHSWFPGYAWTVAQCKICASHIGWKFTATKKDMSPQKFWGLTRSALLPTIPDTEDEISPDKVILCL
T1 sequence (Q16531 whole entry partner): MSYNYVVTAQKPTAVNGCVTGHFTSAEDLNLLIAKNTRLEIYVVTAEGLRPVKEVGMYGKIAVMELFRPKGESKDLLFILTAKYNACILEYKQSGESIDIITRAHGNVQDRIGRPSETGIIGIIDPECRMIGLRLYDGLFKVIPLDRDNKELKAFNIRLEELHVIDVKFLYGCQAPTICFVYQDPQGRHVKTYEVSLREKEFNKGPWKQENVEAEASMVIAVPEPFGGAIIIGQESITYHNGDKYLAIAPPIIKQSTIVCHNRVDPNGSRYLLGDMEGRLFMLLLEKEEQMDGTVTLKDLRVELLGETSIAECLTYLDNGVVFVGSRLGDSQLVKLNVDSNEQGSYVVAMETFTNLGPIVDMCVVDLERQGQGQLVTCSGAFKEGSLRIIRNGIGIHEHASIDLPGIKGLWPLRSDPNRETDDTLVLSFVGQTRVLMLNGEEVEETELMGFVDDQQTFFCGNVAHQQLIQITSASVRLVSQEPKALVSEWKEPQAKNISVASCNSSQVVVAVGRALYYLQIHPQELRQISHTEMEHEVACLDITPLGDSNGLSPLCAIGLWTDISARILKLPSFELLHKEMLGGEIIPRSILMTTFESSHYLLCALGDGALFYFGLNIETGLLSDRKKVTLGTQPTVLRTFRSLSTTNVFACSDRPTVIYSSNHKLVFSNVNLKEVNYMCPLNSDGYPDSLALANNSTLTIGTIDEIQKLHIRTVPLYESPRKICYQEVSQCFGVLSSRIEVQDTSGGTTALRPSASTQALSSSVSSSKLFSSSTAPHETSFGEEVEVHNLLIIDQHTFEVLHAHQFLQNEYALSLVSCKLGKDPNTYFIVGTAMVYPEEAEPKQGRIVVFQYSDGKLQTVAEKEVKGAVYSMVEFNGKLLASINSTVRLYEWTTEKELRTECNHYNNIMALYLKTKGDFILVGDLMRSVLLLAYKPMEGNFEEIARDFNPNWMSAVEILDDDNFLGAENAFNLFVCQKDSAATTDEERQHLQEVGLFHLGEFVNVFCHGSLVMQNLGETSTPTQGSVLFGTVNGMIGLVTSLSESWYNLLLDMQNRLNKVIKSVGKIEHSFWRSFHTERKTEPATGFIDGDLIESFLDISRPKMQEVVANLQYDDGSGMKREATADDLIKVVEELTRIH

WEE1 = biological target: T2, WEE1 (Homo sapiens, UniProt P30291+Q96SW2); assay: Western-blot assay, substrate protein degradation in hPBMCs: WEE1; conditions: for WEE1 substrate protein remaining %: compounds at 50 nM and 500 nM, 24 hours; for substrate protein remaining % WEE1: 24 hours of compound treatment, 50 nM and 500 nM
T2 construct: effects of the compounds of the present disclosure on the expression of target proteins in cells; endogenous in cells; host or cells: human PBMCs (hPBMCs)
T2 sequence (P30291 whole entry): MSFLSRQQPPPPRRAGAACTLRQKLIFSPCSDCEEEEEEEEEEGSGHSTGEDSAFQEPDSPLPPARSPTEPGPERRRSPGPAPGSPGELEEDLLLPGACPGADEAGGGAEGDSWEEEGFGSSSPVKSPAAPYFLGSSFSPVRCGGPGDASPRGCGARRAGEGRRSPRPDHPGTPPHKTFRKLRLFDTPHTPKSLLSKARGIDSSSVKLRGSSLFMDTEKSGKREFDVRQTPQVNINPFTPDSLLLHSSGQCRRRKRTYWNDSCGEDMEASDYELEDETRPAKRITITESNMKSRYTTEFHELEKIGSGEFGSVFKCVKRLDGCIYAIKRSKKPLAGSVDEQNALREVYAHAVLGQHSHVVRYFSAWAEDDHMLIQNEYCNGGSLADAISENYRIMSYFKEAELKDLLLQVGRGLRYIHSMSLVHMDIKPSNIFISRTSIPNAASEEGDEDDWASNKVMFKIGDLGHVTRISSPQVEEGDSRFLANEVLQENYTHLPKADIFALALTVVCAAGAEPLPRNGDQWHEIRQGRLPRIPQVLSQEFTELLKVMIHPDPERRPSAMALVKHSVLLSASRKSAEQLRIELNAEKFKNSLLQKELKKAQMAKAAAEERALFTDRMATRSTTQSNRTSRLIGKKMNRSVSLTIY
T2 sequence (Q96SW2 whole entry): as the sequence (Q96SW2 whole entry) above
T2 sequence (Q16531 whole entry partner): as the sequence (Q16531 whole entry partner) above

CK1α = biological target: T3, CK1α (Homo sapiens, UniProt P48729+Q96SW2); assay: Western-blot assay, substrate protein degradation in hPBMCs: CK1α; conditions: for CK1α substrate protein remaining %: compounds at 50 nM and 500 nM, 24 hours; for substrate protein remaining % CK1α: 24 hours of compound treatment, 50 nM and 500 nM
T3 construct: effects of the compounds of the present disclosure on the expression of target proteins in cells; endogenous in cells; host or cells: human PBMCs (hPBMCs)
T3 sequence (P48729 whole entry): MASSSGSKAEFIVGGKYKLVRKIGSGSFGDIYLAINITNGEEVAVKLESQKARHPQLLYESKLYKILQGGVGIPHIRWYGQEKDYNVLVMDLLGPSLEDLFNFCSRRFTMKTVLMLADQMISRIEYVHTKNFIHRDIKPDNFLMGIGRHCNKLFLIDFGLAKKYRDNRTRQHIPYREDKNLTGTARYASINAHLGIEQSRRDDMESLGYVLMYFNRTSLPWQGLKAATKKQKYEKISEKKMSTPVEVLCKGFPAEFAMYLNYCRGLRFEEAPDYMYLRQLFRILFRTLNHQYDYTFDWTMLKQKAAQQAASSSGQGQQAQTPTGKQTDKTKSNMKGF
T3 sequence (Q96SW2 whole entry): as the sequence (Q96SW2 whole entry) above
T3 sequence (Q16531 whole entry partner): as the sequence (Q16531 whole entry partner) above

IKZF1 = biological target: T4, IKZF1 (Homo sapiens, UniProt Q13422+Q96SW2); assay: Western-blot assay, substrate protein degradation in hPBMCs: IKZF1; conditions: for IKZF1 substrate protein remaining %: compounds at 50 nM and 500 nM, 24 hours; for substrate protein remaining % IKZF1: 24 hours of compound treatment, 50 nM and 500 nM
T4 construct: effects of the compounds of the present disclosure on the expression of target proteins in cells; endogenous in cells; host or cells: human PBMCs (hPBMCs)
T4 sequence (Q13422 whole entry): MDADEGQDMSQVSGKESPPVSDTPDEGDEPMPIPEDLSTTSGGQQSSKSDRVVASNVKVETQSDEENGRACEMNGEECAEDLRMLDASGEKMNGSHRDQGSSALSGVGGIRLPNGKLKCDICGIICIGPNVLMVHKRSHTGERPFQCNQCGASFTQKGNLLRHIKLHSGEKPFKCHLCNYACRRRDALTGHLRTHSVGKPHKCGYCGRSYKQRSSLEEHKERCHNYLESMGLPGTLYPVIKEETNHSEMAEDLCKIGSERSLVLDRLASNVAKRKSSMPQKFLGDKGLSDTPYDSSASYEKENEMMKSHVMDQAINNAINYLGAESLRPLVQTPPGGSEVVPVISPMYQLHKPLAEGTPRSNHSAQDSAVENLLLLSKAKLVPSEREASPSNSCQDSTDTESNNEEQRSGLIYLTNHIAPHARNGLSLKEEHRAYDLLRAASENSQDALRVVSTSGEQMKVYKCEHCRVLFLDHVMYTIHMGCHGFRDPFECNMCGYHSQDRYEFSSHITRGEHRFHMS
T4 sequence (Q96SW2 whole entry): as the sequence (Q96SW2 whole entry) above
T4 sequence (Q16531 whole entry partner): as the sequence (Q16531 whole entry partner) above

IKZF3 = biological target: T5, IKZF3 (Homo sapiens, UniProt Q96SW2+Q9UKT9); assay: Western-blot assay, substrate protein degradation in hPBMCs: IKZF3; conditions: for IKZF3 substrate protein remaining %: compounds at 50 nM and 500 nM, 24 hours; for substrate protein remaining % IKZF3: 24 hours of compound treatment, 50 nM and 500 nM
T5 construct: effects of the compounds of the present disclosure on the expression of target proteins in cells; endogenous in cells; host or cells: human PBMCs (hPBMCs)

IKZF2 = biological target: T6, IKZF2 (Homo sapiens, UniProt Q96SW2+Q9UKS7); assay: Western-blot assay, substrate protein degradation in hPBMCs: IKZF2; conditions: for IKZF2 substrate protein remaining %: compounds at 50 nM and 500 nM, 24 hours; for substrate protein remaining % IKZF2: 24 hours of compound treatment, 50 nM and 500 nM
T6 construct: effects of the compounds of the present disclosure on the expression of target proteins in cells; endogenous in cells; host or cells: human PBMCs (hPBMCs)
T6 sequence (Q9UKS7 whole entry): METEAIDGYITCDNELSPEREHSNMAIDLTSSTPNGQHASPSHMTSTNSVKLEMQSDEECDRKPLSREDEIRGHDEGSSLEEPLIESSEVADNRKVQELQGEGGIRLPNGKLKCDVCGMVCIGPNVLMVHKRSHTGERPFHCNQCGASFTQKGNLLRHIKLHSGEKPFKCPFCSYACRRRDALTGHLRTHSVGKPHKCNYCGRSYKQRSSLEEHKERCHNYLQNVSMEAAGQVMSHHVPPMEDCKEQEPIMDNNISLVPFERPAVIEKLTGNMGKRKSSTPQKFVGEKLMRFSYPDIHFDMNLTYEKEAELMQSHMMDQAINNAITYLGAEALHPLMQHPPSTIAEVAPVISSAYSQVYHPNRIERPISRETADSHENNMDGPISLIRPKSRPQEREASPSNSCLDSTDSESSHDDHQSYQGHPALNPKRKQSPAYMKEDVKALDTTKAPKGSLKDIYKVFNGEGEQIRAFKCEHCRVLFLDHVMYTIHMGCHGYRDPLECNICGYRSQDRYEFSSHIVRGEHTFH
T6 sequence (Q96SW2 whole entry): as the sequence (Q96SW2 whole entry) above
T6 sequence (Q16531 whole entry partner): as the sequence (Q16531 whole entry partner) above

Structure (SMILES) | GSPT1 substrate protein remaining % (GSPT1) | WEE1 substrate protein remaining % (WEE1) | CK1α substrate protein remaining % (CK1α) | IKZF1 substrate protein remaining % (IKZF1) | IKZF3 substrate protein remaining % (IKZF3) | IKZF2 substrate protein remaining % (IKZF2) | substrate protein remaining % GSPT1 (GSPT1) | substrate protein remaining % WEE1 (WEE1) | substrate protein remaining % CK1α (CK1α) | substrate protein remaining % IKZF1 (IKZF1) | substrate protein remaining % IKZF3 (IKZF3) | substrate protein remaining % IKZF2 (IKZF2)
O=C1CCN(N2Cc3cc(CN4CCN(c5c(Cl)cncc5Br)CC4)ccc3C2=O)C(=O)N1 [GT-07170, 1-(5-((4-(3-bromo-5-chloropyridin-4-yl)piperazin-1-yl)methyl)-1-oxoisoindolin-2-yl)dihydropyrimidine-2,4(1H,3H)-dione] | B ("B" is defined as 80%< substrate protein remaining %≤ 100%) | A ("A" is defined as 0% ≤ substrate protein remaining % ≤ 80%) | B ("B" is defined as 80%< substrate protein remaining %≤ 100%) | A ("A" is defined as 0% ≤ substrate protein remaining % ≤ 80%) | B ("B" is defined as 80%< substrate protein remaining %≤ 100%) | B ("B" is defined as 80%< substrate protein remaining %≤ 100%) |  |  |  |  |  | 
CC1CN(C(c2ccccc2)c2ccccc2)CC(C)N1Cc1ccc2c(c1)CN(N1CCC(=O)NC1=O)C2=O (stereo not drawn) [GT-07433, 1-(5-((4-benzhydryl-2,6-dimethylpiperazin-1-yl)methyl)-1-oxoisoindolin-2-yl)dihydropyrimidine-2,4(1H,3H)-dione] |  |  |  |  |  |  | B (80%< substrate protein remaining %≤ 100%) | B (80%< substrate protein remaining %≤ 100%) | A (0% ≤ substrate protein remaining % ≤ 80%) | B (80%< substrate protein remaining %≤ 100%) | B (80%< substrate protein remaining %≤ 100%) | A (0% ≤ substrate protein remaining % ≤ 80%)
O=C1CCN(N2C(=O)c3ccc(CN4CCN(c5nccc(Cl)c5Br)CC4)cc3C2=O)C(=O)N1 [GT-07291, 5-((4-(3-bromo-4-chloropyridin-2-yl)piperazin-1-yl)methyl)-2-(2,4-dioxotetrahydropyrimidin-1(2H)-yl)isoindoline-1,3-dione] | A ("A" is defined as 0% ≤ substrate protein remaining % ≤ 80%) | A ("A" is defined as 0% ≤ substrate protein remaining % ≤ 80%) | B ("B" is defined as 80%< substrate protein remaining %≤ 100%) | B ("B" is defined as 80%< substrate protein remaining %≤ 100%) | B ("B" is defined as 80%< substrate protein remaining %≤ 100%) | B ("B" is defined as 80%< substrate protein remaining %≤ 100%) |  |  |  |  |  | 
O=C1CCN(N2Cc3cc(CN4CCN(c5cccnc5)CC4)ccc3C2=O)C(=O)N1 [GT-05434, 1-(1-oxo-5-((4-(pyridin-3-yl)piperazin-1-yl)methyl)isoindolin-2-yl)dihydropyrimidine-2,4(1H,3H)-dione] | A ("A" is defined as 0% ≤ substrate protein remaining % ≤ 80%) | A ("A" is defined as 0% ≤ substrate protein remaining % ≤ 80%) | B ("B" is defined as 80%< substrate protein remaining %≤ 100%) | B ("B" is defined as 80%< substrate protein remaining %≤ 100%) | B ("B" is defined as 80%< substrate protein remaining %≤ 100%) | B ("B" is defined as 80%< substrate protein remaining %≤ 100%) | A (0% ≤ substrate protein remaining % ≤ 80%) | A (0% ≤ substrate protein remaining % ≤ 80%) | A (0% ≤ substrate protein remaining % ≤ 80%) | B (80%< substrate protein remaining %≤ 100%) | B (80%< substrate protein remaining %≤ 100%) | A (0% ≤ substrate protein remaining % ≤ 80%)
O=C1CCN(N2C(=O)c3ccc(CN4CCC(N5CCc6cc(F)ccc65)CC4)cc3C2=O)C(=O)N1 [GT-05260, 2-(2,4-dioxotetrahydropyrimidin-1(2H)-yl)-5-((4-(5-fluoroindolin-1-yl)piperidin-1-yl)methyl)isoindoline-1,3-dione] | B ("B" is defined as 80%< substrate protein remaining %≤ 100%) | A ("A" is defined as 0% ≤ substrate protein remaining % ≤ 80%) | B ("B" is defined as 80%< substrate protein remaining %≤ 100%) | A ("A" is defined as 0% ≤ substrate protein remaining % ≤ 80%) | B ("B" is defined as 80%< substrate protein remaining %≤ 100%) | A ("A" is defined as 0% ≤ substrate protein remaining % ≤ 80%) |  |  |  |  |  | 
Cc1ccsc1C1CCN(Cc2ccc3c(c2)CN(N2CCC(=O)NC2=O)C3=O)CC1 [GT-07305, 1-(5-((4-(3-methylthiophen-2-yl)piperidin-1-yl)methyl)-1-oxoisoindolin-2-yl)dihydropyrimidine-2,4(1H,3H)-dione] |  |  |  |  |  |  | A (0% ≤ substrate protein remaining % ≤ 80%) | B (80%< substrate protein remaining %≤ 100%) | B (80%< substrate protein remaining %≤ 100%) | B (80%< substrate protein remaining %≤ 100%) | A (0% ≤ substrate protein remaining % ≤ 80%) | A (0% ≤ substrate protein remaining % ≤ 80%)
COc1ccccc1N1CCN(Cc2ccc3c(c2)C(=O)N(N2CCC(=O)NC2=O)C3=O)CC1 [GT-06720, 2-(2,4-dioxotetrahydropyrimidin-1(2H)-yl)-5-((4-(2-methoxyphenyl)piperazin-1-yl)methyl)isoindoline-1,3-dione] | B ("B" is defined as 80%< substrate protein remaining %≤ 100%) | B ("B" is defined as 80%< substrate protein remaining %≤ 100%) | B ("B" is defined as 80%< substrate protein remaining %≤ 100%) | B ("B" is defined as 80%< substrate protein remaining %≤ 100%) | A ("A" is defined as 0% ≤ substrate protein remaining % ≤ 80%) | B ("B" is defined as 80%< substrate protein remaining %≤ 100%) |  |  |  |  |  | 
O=C1CCN(N2C(=O)c3ccc(CN4CCC(c5noc6ccccc56)CC4)cc3C2=O)C(=O)N1 [GT-07522, 5-((4-(benzo[d]isoxazol-3-yl)piperidin-1-yl)methyl)-2-(2,4-dioxotetrahydropyrimidin-1(2H)-yl)isoindoline-1,3-dione] |  |  |  |  |  |  | A (0% ≤ substrate protein remaining % ≤ 80%) | A (0% ≤ substrate protein remaining % ≤ 80%) | A (0% ≤ substrate protein remaining % ≤ 80%) | A (0% ≤ substrate protein remaining % ≤ 80%) | B (80%< substrate protein remaining %≤ 100%) | A (0% ≤ substrate protein remaining % ≤ 80%)
CC1(C)CCC(CN2CC3CCC(C2)N3Cc2ccc3c(c2)CN(N2CCC(=O)NC2=O)C3=O)=C(c2ccc(Cl)cc2)C1 [GT-07330, 1-(5-((3-((4'-chloro-5,5-dimethyl-3,4,5,6-tetrahydro-[1,1'-biphenyl]-2-yl)methyl)-3,8-diazabicyclo[3.2.1]octan-8-yl)methyl)-1-oxoisoindolin-2-yl)dihydropyrimidine-2,4(1H,3H)-dione] |  |  |  |  |  |  | A (0% ≤ substrate protein remaining % ≤ 80%) | A (0% ≤ substrate protein remaining % ≤ 80%) | B (80%< substrate protein remaining %≤ 100%) | A (0% ≤ substrate protein remaining % ≤ 80%) | A (0% ≤ substrate protein remaining % ≤ 80%) | A (0% ≤ substrate protein remaining % ≤ 80%)
O=C1CCN(N2C(=O)c3ccc(CN4CC=C(c5cccc6c(F)cccc56)CC4)cc3C2=O)C(=O)N1 [GT-07687, 2-(2,4-dioxotetrahydropyrimidin-1(2H)-yl)-5-((4-(5-fluoronaphthalen-1-yl)-3,6-dihydropyridin-1(2H)-yl)methyl)isoindoline-1,3-dione] |  |  |  |  |  |  | A (0% ≤ substrate protein remaining % ≤ 80%) | B (80%< substrate protein remaining %≤ 100%) | B (80%< substrate protein remaining %≤ 100%) | B (80%< substrate protein remaining %≤ 100%) | B (80%< substrate protein remaining %≤ 100%) | B (80%< substrate protein remaining %≤ 100%)
